This test addresses T1, VLA4 (Homo sapiens, UniProt P05556+P13612).
T1 construct: endogenous in cells; host or cells: Ramos cells
Nature of the test: Inhibition of VLA4-dependent adhesion of Ramos cells to BSA-CS1. The test is classed as cell-based. The conditions noted are these: Ramos cells, BSA-CS1 coated wells, 2 mM MnCl2, 30 minutes at room temperature; read-out: IC50. From the text:
For example, the cell adhesion inhibitory activity of these compounds may be measured by determining the concentration of inhibitor required to block the binding of VLA-4-expressing cells to fibronectin- or CS1-coated plates. In this assay microtiter wells are coated with either fibronectin (containing the CS1-sequence) or CS-1. If CS-1 is used, it must be conjugated to a carrier protein, such as bovine serum albumin, in order to bind to the wells. Once the wells are coated, varying concentrations of the test compound are then added together with appropriately labelled, VLA-4-expressing cells. Alternatively, the test compound may be added first and allowed to incubate with the coated wells prior to the addition of the cells. The cells are allowed to incubate in the wells for at least 30 minutes. Following incubation, the wells are emptied and washed. Inhibition of binding is measured by quantitating the fluorescence or radioactivity bound to the plate for each of the various concentrations of test compound, as well as for controls containing no test compound.
VLA-4-expressing cells that may be utilized in this assay include Ramos cells, Jurkat cells, A375 melanoma cells, as well as human peripheral blood lymophocytes (PBLs). The cells used in this assay may be fluorescently or radioactively labelled.
This assay was used to assess the potency of VLA4-directed inhibitory compounds of this invention. 1.
We dissolved BSA-SMCC (Pierce Chemical, Rockford, Ill.; Catalog #77115) in H2O at a concentration of 10 mg/mL. [SEQ ID NO:4]: […](“Cys-Tyr-CS1 peptide”), which we synthesized by conventional solid phase chemistry and purified by HPLC, was dissolved in 10 mM HEPES pH 5, 50 mM NaCl and 0.1 mM EDTA also at a concentration of 10 mg/mL. We then mixed 500 μL of BSA-SMCC, 250 μL of Cys-Tyr-CS1 peptide and 75 μL of 1 mM HEPES pH 7.5 and allowed the conjugation reaction to proceed for 30 minutes. We stopped the reaction by adding 1 μL of beta-mercaptoethanol. Samples were analyzed for cross-linking by SDS-PAGE.
We coated the wells of a Linbro titertek polystyrene 96-well flat bottom plate (Flow Laboratories, Maclean, Va.; catalog #76-231-05) with 100 μL of the above-described BSA-CS1 solution diluted to 1 μg/mL in 0.05 M NaHCO3 (15 mM NaHCO3, 35 mM Na2CO3) pH 9.2. Some wells were not coated with CS1 in order to assess non-specific cell binding (NSB). The plate was then incubated overnight at 4° C.
Following this incubation, the contents of the wells were removed by inverting and blotting the plate. All of the wells were then blocked with 100 μL of 1% BSA in PBS, 0.02% NaN3, for a minimum of one hour at room temperature.
Ramos cells are grown, maintained and labelled in RPMI 1640 culture medium containing 1% BSA. Just prior to running the assay, we added 2′, 7′-bis-(2-carboxyethyl)-5(and -6)carboxyfluorescein acetoxymethyl ester (“BCECF-AM”; Molecular Probes Inc., Eugene, Oregon; catalog #B-1150) to a final concentration of 2 μM to a culture of Ramos cells (4×10^6 cells/mL). We incubated the cells for 20 minutes at 37° C.
Following labelling, the cells were washed twice in assay buffer (24 mM TRIS, 137 mM NaCl, 2.7 mM KCl, pH 7.4, containing 0.1 BSA and 2mM glucose) to remove any cations originating from the culture medium. The cells were then resuspended in assay buffer to 4×10^6 cells/mL and 2 mM MnCl2 was added to upregulate VLA4 on the surface of the cells.
Immediately prior to running the assay, we removed the BSA blocking solution from the 96-well plates and washed the wells with 100 μL of assay buffer. We then added to each well 25 μL of test cell adhesion inhibitory compound at 2×the final concentration and 25 μL of the labelled Ramos cells. […] Each concentration of compound was tested in triplicate. The compound and cells are allowed to incubate for 30 minutes at room temperature.

SMILES strings stand for the structures. pIC50: −log10 of the molar value. Numbered stars: 1 amine (or outer) side, 2 acyl side, 3 side chain; on linkers, the order of the positions; unused ones are H or OH. Peptide text beside a SMILES is read from it. * marks the point of attachment. Suc = O=C(CCC(=O)[*:2])[*:1]; Boc = CC(C)(C)OC(=O)*; NHPh = c1ccc(N*)cc1

The record followed here is patent publication US6596687B1, “Cell adhesion inhibitors” (Biogen, Inc., priority 1995, dated 2003).

T1 sequence (P13612 34-1032): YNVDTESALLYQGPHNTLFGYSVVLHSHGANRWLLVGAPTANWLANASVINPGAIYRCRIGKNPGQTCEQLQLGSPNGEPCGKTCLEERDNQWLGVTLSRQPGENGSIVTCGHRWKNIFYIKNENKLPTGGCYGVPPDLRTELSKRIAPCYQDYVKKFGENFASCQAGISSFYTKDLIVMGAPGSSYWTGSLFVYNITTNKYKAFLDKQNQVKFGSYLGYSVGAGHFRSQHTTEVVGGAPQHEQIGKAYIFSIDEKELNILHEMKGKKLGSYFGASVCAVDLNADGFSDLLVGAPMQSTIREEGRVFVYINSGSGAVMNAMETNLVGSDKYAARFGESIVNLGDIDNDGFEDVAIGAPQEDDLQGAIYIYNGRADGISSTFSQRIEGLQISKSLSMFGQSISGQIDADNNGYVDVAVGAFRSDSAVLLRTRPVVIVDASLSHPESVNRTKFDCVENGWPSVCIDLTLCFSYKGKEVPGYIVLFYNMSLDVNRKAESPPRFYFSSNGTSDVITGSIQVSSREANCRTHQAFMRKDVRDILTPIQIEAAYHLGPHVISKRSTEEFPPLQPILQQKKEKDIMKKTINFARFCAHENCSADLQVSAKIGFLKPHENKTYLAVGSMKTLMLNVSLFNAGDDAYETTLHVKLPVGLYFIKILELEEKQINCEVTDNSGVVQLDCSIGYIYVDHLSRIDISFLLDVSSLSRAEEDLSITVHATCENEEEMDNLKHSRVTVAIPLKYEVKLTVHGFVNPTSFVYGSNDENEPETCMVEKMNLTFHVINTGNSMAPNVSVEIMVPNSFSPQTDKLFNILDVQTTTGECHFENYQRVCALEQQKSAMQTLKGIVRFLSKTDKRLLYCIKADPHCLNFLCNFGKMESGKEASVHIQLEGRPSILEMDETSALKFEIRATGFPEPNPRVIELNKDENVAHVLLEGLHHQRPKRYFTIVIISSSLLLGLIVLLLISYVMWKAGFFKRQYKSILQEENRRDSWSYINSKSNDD
T1 sequence (P05556 21-798): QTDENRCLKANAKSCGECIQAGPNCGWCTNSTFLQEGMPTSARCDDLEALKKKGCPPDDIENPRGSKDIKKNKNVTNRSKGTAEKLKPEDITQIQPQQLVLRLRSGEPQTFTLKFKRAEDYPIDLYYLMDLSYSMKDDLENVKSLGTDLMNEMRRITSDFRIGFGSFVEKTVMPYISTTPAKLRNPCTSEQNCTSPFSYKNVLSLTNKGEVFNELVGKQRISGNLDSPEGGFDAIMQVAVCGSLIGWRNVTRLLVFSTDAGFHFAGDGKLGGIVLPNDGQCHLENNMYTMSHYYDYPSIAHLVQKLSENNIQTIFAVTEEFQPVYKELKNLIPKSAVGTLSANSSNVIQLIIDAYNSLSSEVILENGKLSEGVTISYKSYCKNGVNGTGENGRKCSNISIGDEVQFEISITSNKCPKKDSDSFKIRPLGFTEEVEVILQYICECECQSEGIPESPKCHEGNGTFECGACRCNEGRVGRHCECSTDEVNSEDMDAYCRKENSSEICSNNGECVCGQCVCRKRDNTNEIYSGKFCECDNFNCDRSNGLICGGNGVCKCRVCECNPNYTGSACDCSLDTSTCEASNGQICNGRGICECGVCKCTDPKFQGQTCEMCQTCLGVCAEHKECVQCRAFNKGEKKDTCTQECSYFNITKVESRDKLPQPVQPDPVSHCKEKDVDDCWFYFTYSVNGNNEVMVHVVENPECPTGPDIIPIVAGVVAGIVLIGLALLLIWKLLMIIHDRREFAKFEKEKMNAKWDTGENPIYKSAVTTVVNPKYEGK

`CC(C)C[C@H](NC(=O)C(Cc1ccc(O)cc1)N(S(C)(=O)=O)S(C)(=O)=O)C(=O)N[C@@H](CC(=O)O)C(=O)N[C@H](C(=O)O)C(C)C` (stereo partly shown) [Compound 65]: the pIC50 was under 5.00.

On to `CC(C)CC(NC(=O)C(Cc1ccc(O)cc1)NC(=O)OC(C)(C)C)C(=O)NC(CC(=O)O)C(=O)NC(C(=O)O)C(C)C` (stereo not shown) [Compound 66] (Boc-YLDV-OH; configuration not given here), for which the pIC50 was under 5.00. As for `CC(C)C[C@H](NC(=O)C1(N)CCc2ccccc2C1)C(=O)N[C@@H](CC(=O)O)C(=O)N[C@H](C(=O)O)C(C)C` (stereo partly shown) [Compound 67] (HELM PEPTIDE1{[NC1(C(=O)[*:2])CCc2ccccc2C1].L.D.V}$$$$V2.0), the negative logarithm of the IC50 (pIC50) was under 5.00. Then `CC(C)[C@H](NC(=O)[C@H](CC(=O)O)NC(=O)OC(C)(C)C)C(=O)O` [Compound 68] (HELM PEPTIDE1{[CC(C)(C)OC(=O)[*:2]].D.V}$$$$V2.0), with under 5.00; and `CC(C)C[C@H](NC(=O)c1cc2ccccc2cn1)C(=O)N[C@@H](CC(=O)O)C(=O)N[C@H](C(=O)O)C(C)C` [Compound 69], with under 5.00.

As to `CC(C)[C@H](NC(=O)[C@H](CC(=O)O)NC(=O)c1cc2ccccc2cn1)C(=O)O` [Compound 70], the pIC50 is under 5.00. With `CC(C)[C@H](NC(=O)[C@H](CC(=O)O)NC(=O)C1Cc2ccccc2CN1)C(=O)O` (stereo partly shown) [Compound 71] (HELM PEPTIDE1{[O=C(C1Cc2ccccc2CN1)[*:2]].D.V}$$$$V2.0) the figure was under 5.00; with `CC(C)C[C@H](NC(=O)C1CCc2ccccc2C1)C(=O)N[C@@H](CC(=O)O)C(=O)N[C@H](C(=O)O)C(C)C` (stereo partly shown) [Compound 73], under 5.00; with `CC(C)[C@H](NC(=O)[C@H](CC(=O)O)NC(=O)C1CCc2ccccc2C1)C(=O)O` (stereo partly shown) [Compound 75], under 5.00. With `CC(C)[C@H](NC(=O)[C@H](CC(=O)O)NC(=O)CCCCc1ccccc1)C(=O)O` [Compound 76] the figure was under 5.00. With `CC(C)C[C@H](NC(=O)c1ccccn1)C(=O)N[C@@H](CC(=O)O)C(=O)N[C@H](C(=O)O)C(C)C` [Compound 77] the figure was under 5.00; with `CC(C)[C@H](NC(=O)[C@H](CC(=O)O)NC(=O)c1ccccn1)C(=O)O` [Compound 78], under 5.00; with `CC(C)C[C@H](NC(=O)C1CCOC1)C(=O)N[C@@H](CC(=O)O)C(=O)N[C@H](C(=O)O)C(C)C` (stereo partly shown) [Compound 79], under 5.00.

Turning to `CC(C)C[C@H](NC(=O)C1CCCO1)C(=O)N[C@@H](CC(=O)O)C(=O)N[C@H](C(=O)O)C(C)C` (stereo partly shown) [Compound 80], the negative logarithm of the IC50 (pIC50) was under 5.00.

On to `CC(C)[C@H](NC(=O)[C@H](CC(=O)O)NC(=O)[C@H](Cc1ccccc1)NC(=O)c1cc2ccccc2cn1)C(=O)O` [Compound 81], for which the negative logarithm of the IC50 (pIC50) was under 5.00. Then `O=C(O)C[C@H](NC(=O)c1cc2ccccc2cn1)C(=O)N[C@@H](Cc1ccccc1)C(=O)O` [Compound 87], with under 5.00; and `CC(C)C[C@H](NC(=O)[C@H](CC(=O)O)NC(=O)C1Cc2ccccc2CN1)C(=O)O` (stereo partly shown) [Compound 88] (HELM PEPTIDE1{[O=C(C1Cc2ccccc2CN1)[*:2]].D.L}$$$$V2.0), with under 5.00.

For the compound `CC(C)C[C@H](NC(=O)[C@H](CC(=O)O)NC(=O)c1cc2ccccc2cn1)C(=O)O` [Compound 89], the negative-log IC50 (pIC50) was under 5.00. Then `CC(C)C[C@H](NC(=O)[C@H](CC(=O)O)NC(=O)[C@H](CC(C)C)NC(=O)C1Cc2ccccc2CN1)C(=O)O` (stereo partly shown) [Compound 90] (HELM PEPTIDE1{[O=C(C1Cc2ccccc2CN1)[*:2]].L.D.L}$$$$V2.0), with under 5.00; and `CC(C)C[C@H](NC(=O)[C@H](CC(=O)O)NC(=O)[C@H](CC(C)C)NC(=O)c1cc2ccccc2cn1)C(=O)O` [Compound 91], with under 5.00. Then `CC(C)C[C@H](NC(=O)C1Cc2ccccc2CN1)C(=O)N[C@@H](CC(=O)O)C(=O)N[C@@H](Cc1ccccc1)C(=O)O` (stereo partly shown) [Compound 92] (HELM PEPTIDE1{[O=C(C1Cc2ccccc2CN1)[*:2]].L.D.F}$$$$V2.0), with under 5.00. Then `CC(C)C[C@H](NC(=O)c1cc2ccccc2cn1)C(=O)N[C@@H](CC(=O)O)C(=O)N[C@@H](Cc1ccccc1)C(=O)O` [Compound 93], with under 5.00; and `CC(C)C[C@H](NC(=O)c1ccc2ccccc2n1)C(=O)N[C@@H](CC(=O)O)C(=O)N[C@H](C(=O)O)C(C)C` [Compound 94], with under 5.00; and `CC(C)C[C@H](NC(=O)CC(c1ccccc1)c1ccccc1)C(=O)N[C@@H](CC(=O)O)C(=O)N[C@H](C(=O)O)C(C)C` [Compound 95], with under 5.00.

In the case of `CC(C)[C@H](NC(=O)[C@H](CC(=O)O)NC(=O)[C@H](C)NC(=O)C1Cc2ccccc2CN1)C(=O)O` (stereo partly shown) [Compound 96] (HELM PEPTIDE1{[O=C(C1Cc2ccccc2CN1)[*:2]].A.D.V}$$$$V2.0), the pIC50 is under 5.00. With `CC(C)[C@H](NC(=O)[C@H](CC(=O)O)NC(=O)[C@H](C)NC(=O)c1cc2ccccc2cn1)C(=O)O` [Compound 97] the figure was under 5.00; with `CC(C)C[C@H](NC(=O)CCCCc1ccccc1)C(=O)N[C@@H](CC(=O)O)C(=O)N[C@H](C(=O)O)C(C)C` [Compound 98], under 5.00.

With `CC(C)C[C@H](NC(=O)c1cc2ccccc2[nH]1)C(=O)N[C@@H](CC(=O)O)C(=O)N[C@H](C(=O)O)C(C)C` [Compound 99], the negative logarithm of the IC50 (pIC50) was under 5.00. Then `CC(C)CNC(=O)[C@H](CC(=O)O)NC(=O)[C@H](CC(C)C)NC(=O)CCc1ccc(O)cc1` [Compound 100], with under 5.00.

`CC(C)CNC(=O)[C@H](CC(=O)O)NC(=O)[C@H](CC(C)C)NC(=O)c1ccccc1` [Compound 101]: the pIC50 is under 5.00. Then `CC(C)CCNC(=O)[C@H](CC(=O)O)NC(=O)[C@H](CC(C)C)NC(=O)CCCCc1ccccc1` [Compound 102], with under 5.00; and `CC(C)CCNC(=O)[C@H](CC(=O)O)NC(=O)[C@H](CC(C)C)NC(=O)CCc1ccc(O)cc1` [Compound 103], with under 5.00; and `CC(C)C[C@H](NC(=O)CCCCCc1ccccc1)C(=O)N[C@@H](CC(=O)O)C(=O)N[C@H](C(=O)O)C(C)C` [Compound 104], with under 5.00. With `CC(C)C[C@H](NC(=O)c1ccccc1)C(=O)N[C@@H](CC(=O)O)C(=O)N[C@H](C(=O)O)C(C)C` [Compound 105] (HELM PEPTIDE1{[O=C(c1ccccc1)[*:2]].L.D.V}$$$$V2.0) the figure was under 5.00. As to `CC(C)CNC(=O)[C@H](CC(=O)O)NC(=O)[C@H](CC(C)C)NC(=O)CCCCc1ccccc1` [Compound 106], the negative-log IC50 (pIC50) was under 5.00. With `CC(C)C[C@H](NC(=O)CCC(=O)Nc1ccccc1)C(=O)N[C@@H](CC(=O)O)C(=O)N[C@H](C(=O)O)C(C)C` [Compound 107] ({NHPh-Suc}-Leu-Asp-Val-OH) the figure was under 5.00.

In the case of `CC(C)C[C@H](NC(=O)CCC(=O)Nc1ccc(F)cc1)C(=O)N[C@@H](CC(=O)O)C(=O)N[C@H](C(=O)O)C(C)C` [Compound 108], the pIC50 is under 5.00. On to `CC(C)C[C@H](NC(=O)CCC(=O)N(C)c1ccccc1)C(=O)N[C@@H](CC(=O)O)C(=O)N[C@H](C(=O)O)C(C)C` [Compound 109], for which the negative-log IC50 (pIC50) is under 5.00. With `CC(C)CCNC(=O)[C@H](CC(=O)O)NC(=O)[C@H](CC(C)C)NC(=O)C1CCc2ccccc2N1` (stereo partly shown) [Compound 110] the figure was under 5.00; with `CC(C)CNC(=O)[C@H](CC(=O)O)NC(=O)[C@H](CC(C)C)NC(=O)CCC(=O)Nc1ccccc1` [Compound 111], under 5.00.
